What was measured:
[1] = tested on: K-Ras G12C (NCI-H358 cells); test: Potency assay: pERK (AlphaLISA SureFire or In-Cell Western); assay type: cell-based; settings: Homo sapiens, NCI-H358; H358 KRAS G12C; read-out: pERK EC50
How it was run: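 Cellular pERK decrease measured after 4 h compound exposure (37 °C, 5% CO2) of NCI-H358 cells, 10-point 3-fold series from 10 mM DMSO stock, duplicates. Detection either by In-Cell Western (IR-800CW secondary, DRAQ5 stain) or AlphaLISA SureFire Ultra p-ERK1/2; 4-parameter sigmoidal fit gave IC50.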

NCI-H358 (K-Ras G12C) = test: CellTiter-Glo cell viability assay, 5-day treatment; assay type: cell-based; settings: Homo sapiens, NCI-H358, H358, K-Ras G12C; read-out: Additional H358 Cell Viability assay data (K-Ras G12C, IC50)
How it was run: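 Compounds were dispensed directly onto seeded cells and incubated for 5 days, then plates were equilibrated to room temperature for about 30 minutes before luminescence reading. Signals were expressed as percent of the mean DMSO control and fitted with a four-parameter logistic curve.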

NRAS G12C = NRAS G12C (Homo sapiens, UniProt P01111+P62937, G12C); test: Disruption of BRAF RBD interaction with Ras (FRET / MOA assay, with Cyclophilin A); assay type: biochemical; settings: NRAS G12C; read-out: NRAS G12C FRET data IC50
NRAS Q61K = NRAS Q61K (Homo sapiens, UniProt P01111+P62937, Q61K); test: as above; assay type: biochemical; settings: NRAS Q61K; read-out: NRAS Q61K FRET data IC50
How it was run: (§1)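 IC50 reflects compound-driven Ras:Cyclophilin A ternary complex displacing BRAF RBD, read as lowered TR-FRET ratio relative to DMSO after Eu anti-His (10 nM) and APC anti-GST (50 nM) detection for 1.5 h. Prior incubation 3 h, 25° C, with 12.5 nM GMPPNP-loaded Ras, 50 nM BRAF RBD, 25 μM Cyclophilin A; top compound 30 μM.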

NRAS Q61R = NRAS Q61R (Homo sapiens, UniProt P01111+P62937, Q61R); test: as above; assay type: biochemical; settings: NRAS Q61R; read-out: NRAS Q61R FRET data IC50
How it was run: as §1

KRAS G12D = KRAS G12D (Homo sapiens, UniProt P01116+P62937, G12D); test: as above; assay type: biochemical; settings: read-out: KRAS G12D FRET data, IC50
How it was run: (§2)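 Biochemical TR-FRET disruption assay: nucleotide-loaded K-Ras with Cyclophilin A and a BRAF RBD construct, compound titrated over 10 points from 30 μM (final).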

KRAS G13C = KRAS G13C (Homo sapiens, UniProt P01116+P62937, G13C); test: as above; assay type: biochemical; settings: KRAS G13C; read-out: KRAS G13C FRET data IC50
How it was run: as §2

KRAS G12C = KRAS G12C (Homo sapiens, UniProt P01116+P62937, G12C); test: as above; assay type: biochemical; settings: KRAS G12C; read-out: KRAS G12C FRET data IC50
How it was run: as §2

Sequence of NRAS G12C (P01111 whole entry G12C): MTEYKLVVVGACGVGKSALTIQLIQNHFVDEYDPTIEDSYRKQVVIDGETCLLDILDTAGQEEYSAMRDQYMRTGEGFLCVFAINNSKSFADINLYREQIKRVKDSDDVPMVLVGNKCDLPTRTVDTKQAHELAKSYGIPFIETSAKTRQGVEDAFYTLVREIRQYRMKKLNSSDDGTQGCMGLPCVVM
Sequence of NRAS G12C (P62937 whole entry): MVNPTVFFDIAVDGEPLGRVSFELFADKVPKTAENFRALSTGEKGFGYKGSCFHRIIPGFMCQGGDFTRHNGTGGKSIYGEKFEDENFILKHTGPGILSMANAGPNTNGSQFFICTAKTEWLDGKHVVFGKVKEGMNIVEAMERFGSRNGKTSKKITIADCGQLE
Sequence of NRAS Q61R (P01111 whole entry Q61R): as the sequence (P01111 whole entry G12C) above, with C12G, Q61R counted along it
Sequence of NRAS Q61R (P62937 whole entry): as the sequence (P62937 whole entry) above
Sequence of NRAS Q61K (P01111 whole entry Q61K): as the sequence (P01111 whole entry G12C) above, with C12G, Q61K counted along it
Sequence of NRAS Q61K (P62937 whole entry): as the sequence (P62937 whole entry) above
Sequence of KRAS G12D (P01116 1-169 isoform P01116-2 G12D limits assumed): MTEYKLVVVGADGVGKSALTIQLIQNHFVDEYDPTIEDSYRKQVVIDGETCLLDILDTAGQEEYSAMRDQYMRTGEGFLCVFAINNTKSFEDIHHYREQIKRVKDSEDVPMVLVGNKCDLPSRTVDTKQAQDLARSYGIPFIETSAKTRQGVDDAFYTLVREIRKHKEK
Sequence of KRAS G12D (P62937 whole entry): as the sequence (P62937 whole entry) above
Sequence of KRAS G12C (P01116 1-169 isoform P01116-2 G12C): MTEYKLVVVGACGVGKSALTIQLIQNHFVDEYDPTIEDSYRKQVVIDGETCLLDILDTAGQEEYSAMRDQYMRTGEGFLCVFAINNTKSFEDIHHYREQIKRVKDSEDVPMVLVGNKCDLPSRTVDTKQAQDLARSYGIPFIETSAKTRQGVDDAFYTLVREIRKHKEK
Sequence of KRAS G12C (P62937 whole entry): as the sequence (P62937 whole entry) above
Sequence of KRAS G13C (P01116 1-169 isoform P01116-2 G13C): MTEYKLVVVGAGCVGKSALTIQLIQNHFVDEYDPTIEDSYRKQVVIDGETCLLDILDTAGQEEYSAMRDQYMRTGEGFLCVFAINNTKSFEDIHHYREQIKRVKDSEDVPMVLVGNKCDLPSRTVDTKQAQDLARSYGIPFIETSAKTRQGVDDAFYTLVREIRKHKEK
Sequence of KRAS G13C (P62937 whole entry): as the sequence (P62937 whole entry) above

EC50 [1] [nM]	IC50 (NCI-H358 (K-Ras G12C)) [nM]	IC50 (NRAS G12C) [nM]	IC50 (NRAS Q61K) [nM]	IC50 (NRAS Q61R) [nM]	IC50 (KRAS G12C) [nM]	SMILES	IC50 (KRAS G12D) [nM]	IC50 (KRAS G13C) [nM]
< 5000	< 10	10 to 100	100 to 1000	100 to 1000		C=CC(=O)N1CC2(CCN2C(=O)N(C)[C@H](C(=O)N[C@H]2Cc3cccc(n3)-c3ccc4c(c3)c(c(-c3cccnc3[C@H](C)OC)n4CC)CC(C)(C)COC(=O)C3CCCN(N3)C2=O)C(C)C)C1 (stereo partly drawn) [Example A636]		
< 5000	< 10	10 to 100	10 to 100	10 to 100		C=CC(=O)N1CCO[C@@H]2CCN(C(=O)N(C)[C@H](C(=O)N[C@H]3Cc4nc(cs4)-c4ccc5c(c4)c(c(-c4cccnc4[C@H](C)OC)n5CC)CC(C)(C)COC(=O)C4CCCN(N4)C3=O)C(C)C)CC21 (stereo partly drawn) [Example A596]		
< 5000	< 10	10 to 100	> 10000	> 10000		CCn1c(-c2cccnc2[C@H](C)OC)c2c3cc(ccc31)-c1cccc(c1)C[C@H](NC(=O)[C@@H](COC1CN(C(=O)C#CC(C)(C)N(C)C(C)C)C1)C(C)C)C(=O)N1CCCC(N1)C(=O)OCC(C)(C)C2 (stereo partly drawn) [Example A599]		
< 5000	< 10	< 10	1000 to 10000	1000 to 10000		C=CC(=O)Nc1cnc(OC[C@H](C(=O)N[C@H]2Cc3cccc(c3)-c3ccc4c(c3)c(c(-c3cccnc3[C@H](C)OC)n4CC)CC(C)(C)COC(=O)C3CCCN(N3)C2=O)C(C)C)n1C (stereo partly drawn) [Example A600]		
< 5000	< 10	10 to 100	100 to 1000	100 to 1000		C=CC(=O)N1CCO[C@H]2CN(C(=O)N(C)[C@H](C(=O)N[C@H]3Cc4cccc(n4)-c4ccc5c(c4)c(c(-c4cccnc4[C@H](C)OC)n5CC)CC(C)(C)COC(=O)C4CCCN(N4)C3=O)C(C)C)C[C@H]21 (stereo partly drawn) [Example A597]		
< 5000	< 10	< 10	> 10000	> 10000		CCn1c(-c2cccnc2[C@H](C)OC)c2c3cc(ccc31)-c1csc(n1)C[C@H](NC(=O)[C@H](F)COC1CN(C(=O)C#CC(C)(C)N(C)C)C1)C(=O)N1CCCC(N1)C(=O)OCC(C)(C)C2 (stereo partly drawn) [Example A627]		
< 5000	10 to 100	< 10	> 10000	> 10000		CO[C@@H](C)c1ncccc1-c1c2c3cc(ccc3n1CC(F)(F)F)N1CCO[C@@H](C[C@H](NC(=O)[C@H](C(C)C)N3CC[C@@]4(CCN(C(=O)C#CC(C)(C)N(C)C)C4)C3=O)C(=O)N3CCCC(N3)C(=O)OCC(C)(C)C2)C1 [Example A628]		
< 5000	< 10	10 to 100	10 to 100	10 to 100		C=CC(=O)N(C)CCC1CCN(C(=O)N(C)[C@H](C(=O)N[C@H]2Cc3nc(cs3)-c3ccc4c(c3)c(c(-c3cccnc3[C@H](C)OC)n4CC)CC(C)(C)COC(=O)C3CCCN(N3)C2=O)C(C)C)CC1 (stereo partly drawn) [Example A621]		
< 5000	100 to 1000	100 to 1000	100 to 1000	100 to 1000		C=CC(=O)N1CCCC2(CCN(C(=O)N(C)[C@H](C(=O)N[C@H]3Cc4nc(cs4)-c4ccc5c(c4)c(c(-c4cccnc4[C@H](C)OC)n5CC)CC(C)(C)COC(=O)C4CCCN(N4)C3=O)C(C)C)CC2)C1 (stereo partly drawn) [Example A635]		
< 5000	10 to 100	< 10	1000 to 10000	1000 to 10000		CCn1c(-c2cccnc2[C@H](C)OC)c2c3cc(ccc31)-c1csc(n1)C[C@H](NC(=O)[C@@H](F)COC1CN(C(=O)C#CC(C)(C)N(C)C)C1)C(=O)N1CCCC(N1)C(=O)OCC(C)(C)C2 (stereo partly drawn) [Example A626]		
< 5000	10 to 100	100 to 1000	100 to 1000	1000 to 10000		CCn1c(-c2cccnc2[C@H](C)OC)c2c3cc(ccc31)-c1cccc(n1)C[C@H](NC(=O)[C@H](C(C)C)N(C)C(=O)N1CCC13CN(C(=O)C#CC(C)(C)N(C)C)C3)C(=O)N1CCCC(N1)C(=O)OCC(C)(C)C2 (stereo partly drawn) [Example A623]		
< 5000	< 10	10 to 100	10 to 100	100 to 1000		C=CC(=O)N1CC2[C@@H](C1)CN2C(=O)N(C)[C@H](C(=O)N[C@H]1Cc2nc(cs2)-c2ccc3c(c2)c(c(-c2cccnc2[C@H](C)OC)n3CC)CC(C)(C)COC(=O)[C@@H]2CCCN(N2)C1=O)C(C)C (stereo partly drawn) [Example A686]		
< 5000	100 to 1000	100 to 1000	1000 to 10000	1000 to 10000		C=CC(=O)N1CC[C@H](C(=O)N(C)[C@@H](CC(F)(F)F)C(=O)N[C@H]2Cc3cccc(c3)-c3ccc4c(c3)c(c(-c3cccnc3[C@H](C)OC)n4CC)CC(C)(C)COC(=O)C3CCCN(N3)C2=O)C1 (stereo partly drawn) [Example A639]		
< 5000	< 10	10 to 100	10 to 100	100 to 1000		C=CC(=O)N(C)[C@H]1CN(C(=O)N(C)[C@H](C(=O)N[C@H]2Cc3nc(cs3)-c3ccc4c(c3)c(c(-c3cccnc3[C@H](C)OC)n4CC)CC(C)(C)COC(=O)C3CCCN(N3)C2=O)C(C)C)C[C@H]1F (stereo partly drawn) [Example A631]		
< 5000	10 to 100	10 to 100	> 10000	> 10000		CCn1c(-c2cccnc2[C@H](C)OC)c2c3cc(ccc31)N1CCC[C@@H](C[C@H](NC(=O)[C@H](C(C)C)N(C)C(=O)C3CCN(C(=O)C#CC(C)(C)N4CCC4)C3)C(=O)N3CCCC(N3)C(=O)OCC(C)(C)C2)C1 (stereo partly drawn) [Example A617]		
< 5000	10 to 100	100 to 1000	1000 to 10000	1000 to 10000		C=CC(=O)N1CC[C@H](C(=O)N(C)[C@H](C(=O)N[C@H]2Cc3cccc(c3)-c3ccc4c(c3)c(c(-c3cccnc3[C@H](C)OC)n4CC)CC(C)(C)COC(=O)C3CCCN(N3)C2=O)[C@@H](C)C(F)(F)F)C1 (stereo partly drawn) [Example A640]		
< 5000	10 to 100	100 to 1000	100 to 1000	100 to 1000		C=CC(=O)N1CCC[C@H]2CN(C(=O)N(C)[C@H](C(=O)N[C@H]3Cc4nc(cs4)-c4ccc5c(c4)c(c(-c4cccnc4[C@H](C)OC)n5CC)CC(C)(C)COC(=O)C4CCCN(N4)C3=O)C(C)C)C[C@H]21 (stereo partly drawn) [Example A618]		
< 5000	10 to 100	100 to 1000	1000 to 10000	1000 to 10000		C=CC(=O)N1CC[C@H](C(=O)N(C)[C@H](C(=O)N[C@H]2Cc3cccc(c3)-c3ccc4c(c3)c(c(-c3cccnc3[C@H](C)OC)n4CC)CC(C)(C)COC(=O)C3CCCN(N3)C2=O)[C@H](C)C(F)(F)F)C1 (stereo partly drawn) [Example A641]		
< 5000	10 to 100	100 to 1000	100 to 1000	100 to 1000		CCn1c(-c2cccnc2[C@H](C)OC)c2c3cc(ccc31)-c1csc(n1)C[C@H](NC(=O)[C@H](C(C)C)N(C)C(=O)N1C[C@@H]3CN(C(=O)C#CC(C)(C)N(C)C)CC[C@@H]31)C(=O)N1CCCC(N1)C(=O)OCC(C)(C)C2 (stereo partly drawn) [Example A625]		
< 5000	< 10	< 10	> 10000	> 10000	10 to 100	CCn1c(-c2cccnc2[C@H](C)OC)c2c3cc(ccc31)N1CCC[C@@H](C[C@H](NC(=O)[C@H](C(C)C)N(C)C(=O)C3(F)CCN(C(=O)C#CC(C)(C)N(C)C)CC3)C(=O)N3CCCC(N3)C(=O)OCC(C)(C)C2)C1 [Example A616]	> 10000	
< 5000	< 10	< 10	10 to 100	100 to 1000		C=CC(=O)N1CC2(C1)OCCN2C(=O)N(C)[C@H](C(=O)N[C@H]1Cc2nc(cs2)-c2ccc3c(c2)c(c(-c2cccnc2[C@H](C)OC)n3CC)CC(C)(C)COC(=O)C2CCCN(N2)C1=O)C(C)C (stereo partly drawn) [Example A620]		

SMILES	EC50 [1] [nM]	IC50 (NCI-H358 (K-Ras G12C)) [nM]	IC50 (NRAS G12C) [nM]	IC50 (NRAS Q61K) [nM]	IC50 (NRAS Q61R) [nM]	IC50 (KRAS G12C) [nM]	IC50 (KRAS G12D) [nM]	IC50 (KRAS G13C) [nM]
C=CC(=O)N(C)CC1CCN(C(=O)N(C)[C@H](C(=O)N[C@H]2Cc3nc(cs3)-c3ccc4c(c3)c(c(-c3cccnc3[C@H](C)OC)n4CC)CC(C)(C)COC(=O)C3CCCN(N3)C2=O)C(C)C)CC1 (stereo partly drawn) [Example A629]	< 5000	< 10	10 to 100	10 to 100	10 to 100		100 to 1000	10 to 100
